Assay type in all cases: functional
The subject of one test is Streptococcus pneumoniae. Put plainly: Compound was tested in vitro for antibacterial activity against Streptococcus pneumoniae UC 9912.
Another test concerns Escherichia coli. The experiment in a line: Compound was tested in vitro for antibacterial activity against Escherichia coli extracts, using cell free prokaryotic transcription coupled translation (T/T) assay. Also noted: concentration or dose not given beside the values. The note with it: dose or concentration not given here.
The subject of a further test is Enterococcus faecalis. The experiment in a line: Compound was tested in vitro for antibacterial activity against Enterococcus faecalis UC 9217.
For test [1], the system named is Mycobacterium tuberculosis. Put plainly: Compound was tested in vitro for antibacterial activity against Mycobacterium tuberculosis H37 Rv.
The next test relates to Mus musculus. The experiment in a line: Amount of drug required (mg/kg body weight/dose) to cure 50% of infected mice subjected to a lethal systemic infection with Staphylococcus aureus UC 9213.
Test [2] has as its system Staphylococcus aureus. The experiment in a line: Compound was tested in vitro for antibacterial activity against methicillin-resistant Staphylococcus aureus UC 6685.
In test [3] the test system is Staphylococcus epidermidis. Put plainly: Compound was tested in vitro for antibacterial activity against methicillin-resistant Staphylococcus epidermidis UC 12084.
For test [4], the system named is Staphylococcus aureus. The experiment in a line: Compound was tested in vitro for antibacterial activity against methicillin-susceptible Staphylococcus aureus UC 9213.

Molecules are shown by their SMILES. Values after ≈ are worked out from the molar mass of the structure shown. A value given as a limit tells only on which side of the number the result lay.

Regarding `COc1cc(-c2ccc(N3CC(CNC(C)=O)OC3=O)cc2)cccc1=O` (stereo not drawn), the MIC is 4 µg/mL (≈ 10.9 µM) against Streptococcus pneumoniae; 32 µg/mL (≈ 86.9 µM) in the test with Enterococcus faecalis; at most 16 µg/mL in test [1]; 16 µg/mL (≈ 43.4 µM) against Staphylococcus aureus [2]; 8 µg/mL (≈ 21.7 µM) in test [3]; 64 µg/mL (≈ 174 µM) with Staphylococcus aureus [4]. The compound also gave an inhibition in the test on Escherichia coli of 39%. For the same compound, the ED50 in the test with Mus musculus was above 20 mg/kg.

On to `C#CCNc1cccc(-c2ccc(N3CC(CNC(C)=O)OC3=O)cc2)cc1=O` (stereo not drawn), for which the MIC in the test with Streptococcus pneumoniae was 0.5 µg/mL (≈ 1.28 µM); against Enterococcus faecalis, 1 µg/mL (≈ 2.55 µM); in test [1] it was at most 1 µg/mL; against Staphylococcus aureus [2], 1 µg/mL (≈ 2.55 µM); in test [3] it was 1 µg/mL (≈ 2.55 µM); against Staphylococcus aureus [4], 2 µg/mL (≈ 5.11 µM). The compound also showed an inhibition in the test on Escherichia coli of 76%. In addition, the ED50 in the test with Mus musculus was found to be 3.4 mg/kg.

In turn, `CN[C@H](CC(C)C)C(=O)N[C@H]1C(=O)N[C@@H](CC(N)=O)C(=O)N[C@H]2C(=O)N[C@H]3C(=O)N[C@H](C(=O)N[C@H](C(=O)O)c4cc(O)cc(O)c4-c4cc3ccc4O)[C@H](O)c3ccc(c(Cl)c3)Oc3cc2cc(c3O[C@@H]2O[C@H](CO)[C@@H](O)[C@H](O)[C@H]2O[C@H]2C[C@](C)(N)[C@H](O)[C@H](C)O2)Oc2ccc(cc2Cl)[C@H]1O` [VANCOMYCIN] yielded an MIC with Streptococcus pneumoniae of 0.5 µg/mL (≈ 0.345 µM).

In the case of `C=CCOc1ccc(-c2ccc(N3CC(CNC(C)=O)OC3=O)cc2)ccc1=O` (stereo not drawn), the MIC stood at 0.25 µg/mL (≈ 0.634 µM) in the test with Streptococcus pneumoniae; 2 µg/mL (≈ 5.07 µM) in the test on Enterococcus faecalis; 1 µg/mL (≈ 2.54 µM) against Staphylococcus aureus [2]; 0.5 µg/mL (≈ 1.27 µM) in test [3]; 4 µg/mL (≈ 10.1 µM) in the test on Staphylococcus aureus [4]. Moreover, the inhibition with Escherichia coli turned out to be 74%. Also, the ED50 in the test with Mus musculus amounted to 7.9 mg/kg.

On to `C/N=c1\ccc(-c2ccc(N3CC(CNC(C)=O)OC3=O)cc2)ccc1O` (stereo not drawn), for which the MIC with Streptococcus pneumoniae is 0.25 µg/mL (≈ 0.68 µM); against Enterococcus faecalis it was 1 µg/mL (≈ 2.72 µM); in the test with Staphylococcus aureus [2], 1 µg/mL (≈ 2.72 µM); in test [3] it was 0.25 µg/mL (≈ 0.68 µM); with Staphylococcus aureus [4] it was 2 µg/mL (≈ 5.44 µM). In the test with Mus musculus, this compound gave an ED50 of 4.6 mg/kg.

`C=CCNc1ccc(-c2ccc(N3CC(CNC(C)=O)OC3=O)cc2)ccc1=O` (stereo not drawn): the MIC is 0.5 µg/mL (≈ 1.27 µM) in the test on Streptococcus pneumoniae; 1 µg/mL (≈ 2.54 µM) against Enterococcus faecalis; 1 µg/mL (≈ 2.54 µM) against Staphylococcus aureus [2]; 0.5 µg/mL (≈ 1.27 µM) in test [3]; 2 µg/mL (≈ 5.08 µM) in the test with Staphylococcus aureus [4]. Besides, in the test on Escherichia coli, the inhibition is 81%. The compound further yielded an ED50 with Mus musculus of 12.7 mg/kg.

With `CC(=O)NCC1CN(c2ccc(-c3ccc(N4CCOCC4)c(=O)cc3)cc2)C(=O)O1` (stereo not drawn), the MIC is 0.5 µg/mL (≈ 1.18 µM) against Streptococcus pneumoniae; 1 µg/mL (≈ 2.36 µM) against Enterococcus faecalis; at most 1 µg/mL in test [1]; 2 µg/mL (≈ 4.72 µM) with Staphylococcus aureus [2]; 0.5 µg/mL (≈ 1.18 µM) in test [3]; 2 µg/mL (≈ 4.72 µM) with Staphylococcus aureus [4]. In the test with Escherichia coli, this compound registered an inhibition of 81%.

As to `C=CCNc1cccc(-c2ccc(N3CC(CNC(C)=O)OC3=O)cc2)cc1=O` (stereo not drawn), the minimal inhibitory concentration (MIC) was 0.5 µg/mL (≈ 1.27 µM) in the test with Streptococcus pneumoniae; 1 µg/mL (≈ 2.54 µM) with Enterococcus faecalis; 1 µg/mL (≈ 2.54 µM) with Staphylococcus aureus [2]; 0.5 µg/mL (≈ 1.27 µM) in test [3]; 2 µg/mL (≈ 5.08 µM) with Staphylococcus aureus [4]. This compound also came in with an inhibition with Escherichia coli of 80%. Also, the ED50 in the test with Mus musculus was determined as 12.5 mg/kg.

On to `CC(=O)NC[C@H]1CN(c2ccc(C(C)=O)cc2)C(=O)O1` (racemic) [DUP-721], for which the MIC in the test with Streptococcus pneumoniae is 2 µg/mL (≈ 7.24 µM); against Enterococcus faecalis, 8 µg/mL (≈ 29 µM); in test [1], at most 16 µg/mL; against Staphylococcus aureus [2], 4 µg/mL (≈ 14.5 µM); in test [3], 2 µg/mL (≈ 7.24 µM); against Staphylococcus aureus [4] it was 8 µg/mL (≈ 29 µM). The same compound gave an inhibition in the test on Escherichia coli of 45%. In the test with Mus musculus, this compound returned an ED50 of 9.4 mg/kg.

As for `COc1ccc(-c2ccc(N3CC(CNC(C)=O)OC3=O)cc2)ccc1=O` (stereo not drawn), the MIC in the test with Streptococcus pneumoniae was 0.25 µg/mL (≈ 0.679 µM); in the test on Enterococcus faecalis, 1 µg/mL (≈ 2.71 µM); in test [1], at most 1 µg/mL; with Staphylococcus aureus [2], 1 µg/mL (≈ 2.71 µM); in test [3], 0.5 µg/mL (≈ 1.36 µM); in the test on Staphylococcus aureus [4], 2 µg/mL (≈ 5.43 µM). The compound further returned an inhibition in the test on Escherichia coli of 89%.

In the case of `COc1cccc(-c2ccc(N3CC(CNC(C)=O)OC3=O)cc2)cc1=O` (stereo not drawn), the MIC with Streptococcus pneumoniae is 0.5 µg/mL (≈ 1.36 µM); in the test with Enterococcus faecalis, 2 µg/mL (≈ 5.43 µM); in test [1], at most 1 µg/mL; in the test with Staphylococcus aureus [2], 2 µg/mL (≈ 5.43 µM); in test [3], 0.5 µg/mL (≈ 1.36 µM); with Staphylococcus aureus [4] it was 4 µg/mL (≈ 10.9 µM). The compound further returned an inhibition in the test on Escherichia coli of 90%.
